Assay results from patent US8729064B2, “Heteroaromatic and aromatic piperazinyl azetidinyl amides as monoacylglycerol lipase inhibitors” (Janssen Pharmaceutica, NV, priority 2009, dated 2014).

Target: T1, MGL activity in HeLa cell homogenate (Homo sapiens, UniProt Q99685)
T1 construct: HeLa cells were homogenated with a Polytron; endogenous in cells; host or cells: HeLa cell homogenate
T1 sequence (Q99685 1-303): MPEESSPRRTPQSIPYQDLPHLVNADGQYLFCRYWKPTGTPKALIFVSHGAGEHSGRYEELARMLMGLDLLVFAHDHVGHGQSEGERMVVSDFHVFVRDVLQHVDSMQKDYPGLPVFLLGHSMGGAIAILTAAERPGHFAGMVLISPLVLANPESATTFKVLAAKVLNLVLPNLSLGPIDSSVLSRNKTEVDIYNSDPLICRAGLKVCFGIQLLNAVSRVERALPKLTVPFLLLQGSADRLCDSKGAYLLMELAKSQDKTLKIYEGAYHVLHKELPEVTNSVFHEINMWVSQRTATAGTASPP
Assay: 2-AG Accumulation Assay in HeLa cell homogenate
Format: biochemical
Conditions: compound 1 μM, accumulated 2-AG relative to MAFP 2-AG x100

| Example 4 % MAFP @ 1 μM [% MAFP] | Structure (SMILES) |
| --- | --- |
| 39.7 | O=C(c1ccc2nc(C3CCCCC3)oc2c1)N1CC(N2CCN(c3ccccn3)CC2)C1 [Compound 2, (2-Cyclohexyl-benzooxazol-6-yl)-[3-(4-pyridin-2-yl-piperazin-1-yl)-azetidin-1-yl]-methanone] |
| 45.7 | O=C(c1cccc2nc(-c3cccc(F)c3)oc12)N1CC(N2CCN(c3ccccn3)CC2)C1 [Compound 3, [2-(3-Fluoro-phenyl)-benzooxazol-7-yl]-[3-(4-pyridin-2-yl-piperazin-1-yl)-azetidin-1-yl]-methanone] |
| 30.6 | O=C(c1cccc2nc(-c3ccc(F)cc3)oc12)N1CC(N2CCN(c3ccccn3)CC2)C1 [Compound 6, [2-(4-Fluoro-phenyl)-benzooxazol-7-yl]-[3-(4-pyridin-2-yl-piperazin-1-yl)-azetidin-1-yl]-methanone] |
| 19.9 | CC(C)(C)c1nc2ccc(C(=O)N3CC(N4CCN(c5ccccn5)CC4)C3)cc2o1 [Compound 19, (2-tert-Butyl-benzooxazol-6-yl)-[3-(4-pyridin-2-yl-piperazin-1-yl)-azetidin-1-yl]-methanone] |

Same assay, conditions: compound 10 μM, accumulated 2-AG relative to MAFP 2-AG x100

| Example 4 % MAFP @ 10 μM [% MAFP] | Structure (SMILES) |
| --- | --- |
| 87.6 | O=C(c1ccc2nc(C3CCCCC3)oc2c1)N1CC(N2CCN(c3ccccn3)CC2)C1 [Compound 2, (2-Cyclohexyl-benzooxazol-6-yl)-[3-(4-pyridin-2-yl-piperazin-1-yl)-azetidin-1-yl]-methanone] |
| 82.9 | O=C(c1cccc2nc(-c3cccc(F)c3)oc12)N1CC(N2CCN(c3ccccn3)CC2)C1 [Compound 3, [2-(3-Fluoro-phenyl)-benzooxazol-7-yl]-[3-(4-pyridin-2-yl-piperazin-1-yl)-azetidin-1-yl]-methanone] |
| 68.8 | O=C(c1cccc2nc(-c3ccc(F)cc3)oc12)N1CC(N2CCN(c3ccccn3)CC2)C1 [Compound 6, [2-(4-Fluoro-phenyl)-benzooxazol-7-yl]-[3-(4-pyridin-2-yl-piperazin-1-yl)-azetidin-1-yl]-methanone] |
| 79.5 | COc1ccc(-c2nc3cccc(C(=O)N4CC(N5CCN(c6ccccn6)CC5)C4)c3o2)cc1 [Compound 7, [2-(4-Methoxy-phenyl)-benzooxazol-7-yl]-[3-(4-pyridin-2-yl-piperazin-1-yl)-azetidin-1-yl]-methanone] |
| 72.9 | CC(C)Cc1cc2cc(C(=O)N3CC(N4CCN(c5ccccn5)CC4)C3)ccc2n1CC(C)C [Compound 8, (1,2-Diisobutyl-1H-indol-5-yl)-[3-(4-pyridin-2-yl-piperazin-1-yl)-azetidin-1-yl]-methanone] |
| 67.8 | CC(C)Cn1c(COc2ccccc2)cc2cc(C(=O)N3CC(N4CCN(c5ccccn5)CC4)C3)ccc21 [Compound 9, (1-Isobutyl-2-phenoxymethyl-1H-indol-5-yl)-[3-(4-pyridin-2-yl-piperazin-1-yl)-azetidin-1-yl]-methanone] |
| 160.1 | CC(C)(C)Cn1c(-c2ccccc2)cc2cc(C(=O)N3CC(N4CCN(c5ccccn5)CC4)C3)ccc21 [Compound 10, [1-(2,2-Dimethyl-propyl)-2-phenyl-1H-indol-5-yl]-[3-(4-pyridin-2-yl-piperazin-1-yl)-azetidin-1-yl]-methanone] |
| 160.1 | O=C(c1ccc2c(c1)cc(COc1ccccc1)n2CC1CCCCC1)N1CC(N2CCN(c3ccccn3)CC2)C1 [Compound 11, (1-Cyclohexylmethyl-2-phenoxymethyl-1H-indol-5-yl)-[3-(4-pyridin-2-yl-piperazin-1-yl)-azetidin-1-yl]-methanone] |
| 142.0 | Cn1c(CC2CCCC2)cc2cc(C(=O)N3CC(N4CCN(c5ccccn5)CC4)C3)ccc21 [Compound 12, (2-Cyclopentylmethyl-1-methyl-1H-indol-5-yl)-[3-(4-pyridin-2-yl-piperazin-1-yl)-azetidin-1-yl]-methanone] |
| 93.5 | CC(C)Cn1c(-c2ccccc2)cc2cc(C(=O)N3CC(N4CCN(c5ccccn5)CC4)C3)ccc21 [Compound 13, (1-Isobutyl-2-phenyl-1H-indol-5-yl)-[3-(4-pyridin-2-yl-piperazin-1-yl)-azetidin-1-yl]-methanone] |
| 53.7 | O=C(c1ccc2[nH]c(CC3CCCCC3)cc2c1)N1CC(N2CCN(c3ccccn3)CC2)C1 [Compound 14, (2-Cyclohexylmethyl-1H-indol-5-yl)-[3-(4-pyridin-2-yl-piperazin-1-yl)-azetidin-1-yl]-methanone] |
| 57.6 | COc1ccccc1Cc1nc2cc(C(=O)N3CC(N4CCN(c5ccccn5)CC4)C3)ccc2o1 [Compound 15, [2-(2-Methoxy-benzyl)-benzooxazol-5-yl]-[3-(4-pyridin-2-yl-piperazin-1-yl)-azetidin-1-yl]-methanone] |
| 25.9 | COc1ccccc1N1CCN(C2CN(C(=O)c3ccc4c(c3)cc(COc3ccccc3)n4CC(C)C)C2)CC1 [Compound 17, (1-Isobutyl-2-phenoxymethyl-1H-indol-5-yl)-{3-[4-(2-methoxy-phenyl)-piperazin-1-yl]-azetidin-1-yl}-methanone] |
| 134.6 | O=C(c1ccc2c(c1)cc(Cc1ccccc1)n2CC1CCCCC1)N1CC(N2CCN(c3ccccn3)CC2)C1 [Compound 18, (2-Benzyl-1-cyclohexylmethyl-1H-indol-5-yl)-[3-(4-pyridin-2-yl-piperazin-1-yl)-azetidin-1-yl]-methanone] |
| 47.3 | CC(C)(C)c1nc2ccc(C(=O)N3CC(N4CCN(c5ccccn5)CC4)C3)cc2o1 [Compound 19, (2-tert-Butyl-benzooxazol-6-yl)-[3-(4-pyridin-2-yl-piperazin-1-yl)-azetidin-1-yl]-methanone] |
| 86.9 | COc1cccc(-c2nc3cc(C(=O)N4CC(N5CCN(c6ccccn6)CC5)C4)ccc3o2)c1 [Compound 20, [2-(3-Methoxy-phenyl)-benzooxazol-5-yl]-[3-(4-pyridin-2-yl-piperazin-1-yl)-azetidin-1-yl]-methanone] |
| 29.2 | COc1ccccc1N1CCN(C2CN(C(=O)c3ccc4c(c3)cc(Cc3ccccc3)n4CC(C)C)C2)CC1 [Compound 21, (2-Benzyl-1-isobutyl-1H-indol-5-yl)-{3-[4-(2-methoxy-phenyl)-piperazin-1-yl]-azetidin-1-yl}-methanone] |
| 50.1 | COc1ccccc1N1CCN(C2CN(C(=O)c3ccc4c(c3)cc(COc3ccccc3)n4CC(C)(C)C)C2)CC1 [Compound 22, [1-(2,2-Dimethyl-propyl)-2-phenoxymethyl-1H-indol-5-yl]-{3-[4-(2-methoxy-phenyl)-piperazin-1-yl]-azetidin-1-yl}-methanone] |
| 84.5 | COc1ccccc1N1CCN(C2CN(C(=O)c3ccc4c(c3)cc(Cc3ccccc3)n4CC3CCCCC3)C2)CC1 [Compound 23, (2-Benzyl-1-cyclohexylmethyl-1H-indol-5-yl)-{3-[4-(2-methoxy-phenyl)-piperazin-1-yl]-azetidin-1-yl}-methanone] |
| 58.8 | COc1ccccc1N1CCN(C2CN(C(=O)c3ccc4c(c3)cc(-c3ccccc3)n4CC(C)(C)C)C2)CC1 [Compound 24, [1-(2,2-Dimethyl-propyl)-2-phenyl-1H-indol-5-yl]-{3-[4-(2-methoxy-phenyl)-piperazin-1-yl]-azetidin-1-yl}-methanone] |
| 65.8 | CC(C)(C)Cn1c(-c2ccccc2)cc2cc(C(=O)N3CC(N4CCN(c5ccc(F)cc5)CC4)C3)ccc21 [Compound 25, [1-(2,2-Dimethyl-propyl)-2-phenyl-1H-indol-5-yl]-{3-[4-(4-fluoro-phenyl)-piperazin-1-yl]-azetidin-1-yl}-methanone] |
| 37.0 | CC(C)(C)Cn1c(C(C)(C)C)cc2cc(C(=O)N3CC(N4CCN(c5ccccn5)CC4)C3)ccc21 [Compound 26, [2-tert-Butyl-1-(2,2-dimethyl-propyl)-1H-indol-5-yl]-[3-(4-pyridin-2-yl-piperazin-1-yl)-azetidin-1-yl]-methanone] |
| 76.3 | COCC(=O)c1c(-c2ccc(C)cc2)[nH]c2ccc(C(=O)N3CC(N4CCN(c5ccccn5)CC4)C3)cc12 [Compound 27, 2-Methoxy-1-{5-[3-(4-pyridin-2-yl-piperazin-1-yl)-azetidine-1-carbonyl]-2-p-tolyl-1H-indol-3-yl}-ethanone] |
| 77.0 | CCCc1cc2cc(C(=O)N3CC(N4CCN(c5ccccn5)CC4)C3)ccc2n1CC1CCCCC1 [Compound 28, (1-Cyclohexylmethyl-2-propyl-1H-indol-5-yl)-[3-(4-pyridin-2-yl-piperazin-1-yl)-azetidin-1-yl]-methanone] |
